# Measurements: ChEMBL document CHEMBL1201862, “PubChem BioAssay data set” (2004)
# Calls of active or inactive are those of the source.
# Legend:
# Escherichia coli = test: microbe, parasite or virus in culture
# [1] = target: T1, Peroxisome proliferator-activated receptor gamma/Nuclear receptor coactivator 1 (Homo sapiens, UniProt P37231); test: TR-FRET dose response biochemical High Throughput Screening assay for agonists of the steroid receptor coactivator 1 (SRC-1) recruitment by the peroxisome proliferator-activated receptor gamma (PPAR gamma): non-selective agonists. [Related pubchem assays (depositor defined):AID1300, AID1808, AID504735, AID631]; assay type: protein assay
# [2] = target: T2, Peroxisome proliferator-activated receptor gamma/Nuclear receptor coactivator 3 (Homo sapiens, UniProt P37231); test: TR-FRET dose response biochemical High Throughput Screening assay for agonists of the steroid receptor coactivator 3 (SRC-3) recruitment by the peroxisome proliferator-activated receptor gamma (PPAR gamma): non-selective agonists. [Related pubchem assays: 1301 (Confirmation screen.), 1048 (Primary screen.)]; assay type: functional
# [3] = target: T3, Peroxisome proliferator-activated receptor gamma/Nuclear receptor coactivator 2 (Homo sapiens, UniProt P37231); test: TR-FRET dose response biochemical High Throughput Screening assay for agonists of the steroid receptor coactivator 2 (SRC-2) recruitment by the peroxisome proliferator-activated receptor gamma (PPAR gamma): non-selective agonists. [Related pubchem assays: 1297, 1032 ]; assay type: functional
# [4] = target: T4, High affinity choline transporter 1 (Homo sapiens, UniProt Q9GZV3); test: human choline transporter blockers, potency – cell-based, 5-point CRC, membrane potential dye, dose response (AID 504840); assay type: functional
# T4 sequence (Q9GZV3 whole entry): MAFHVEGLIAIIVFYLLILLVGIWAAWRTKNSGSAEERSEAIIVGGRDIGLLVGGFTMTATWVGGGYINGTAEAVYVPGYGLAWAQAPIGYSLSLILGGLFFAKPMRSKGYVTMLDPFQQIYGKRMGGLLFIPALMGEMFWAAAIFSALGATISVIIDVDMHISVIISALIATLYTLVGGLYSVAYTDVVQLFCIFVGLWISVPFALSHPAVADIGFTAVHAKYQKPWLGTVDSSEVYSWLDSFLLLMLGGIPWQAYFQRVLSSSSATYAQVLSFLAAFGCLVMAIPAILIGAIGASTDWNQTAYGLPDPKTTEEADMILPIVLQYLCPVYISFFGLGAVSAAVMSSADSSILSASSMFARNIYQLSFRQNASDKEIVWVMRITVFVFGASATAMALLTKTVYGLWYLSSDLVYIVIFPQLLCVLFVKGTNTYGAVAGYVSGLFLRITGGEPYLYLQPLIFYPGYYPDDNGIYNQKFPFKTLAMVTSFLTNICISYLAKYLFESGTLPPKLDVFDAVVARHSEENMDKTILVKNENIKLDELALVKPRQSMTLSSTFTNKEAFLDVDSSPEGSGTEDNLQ
# [5] = target: T4, High affinity choline transporter 1; test: human choline transporter blockers, potency – cell-based, 10-point CRC, membrane potential dye, dose response (AID 588401); assay type: functional;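 note: membrane potential dye fluorescence of choline-evoked depolarization via CHT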
# Bcl-2-related protein A1 = target: T5, Bcl-2-related protein A1 (Mus musculus, UniProt Q07440); assay type: functional;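 note: confirmatory dose–response counterscreen on Bfl-1, used to check hits from a UBC13 polyubiquitin inhibitor campaign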
# T5 sequence (Q07440 whole entry): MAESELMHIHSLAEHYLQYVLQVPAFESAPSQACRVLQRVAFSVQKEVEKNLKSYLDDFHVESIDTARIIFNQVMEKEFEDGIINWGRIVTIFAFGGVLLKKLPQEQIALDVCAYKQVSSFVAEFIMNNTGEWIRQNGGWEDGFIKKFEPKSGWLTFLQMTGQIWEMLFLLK
# [6] = target: T6, Ubiquitin-conjugating enzyme E2 N (Homo sapiens, UniProt P61088); assay type: functional
# T6 sequence (P61088 whole entry): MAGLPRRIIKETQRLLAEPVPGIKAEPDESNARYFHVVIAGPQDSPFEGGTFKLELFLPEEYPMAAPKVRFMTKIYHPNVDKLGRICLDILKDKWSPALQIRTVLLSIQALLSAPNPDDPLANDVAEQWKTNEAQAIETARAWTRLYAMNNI
# [7] = target: T6, Ubiquitin-conjugating enzyme E2 N; assay type: functional; remark: listed apart in the source
# [8] = target: T7, Apoptotic protease-activating factor 1 (Homo sapiens, UniProt O14727); assay type: functional
# T7 sequence (O14727 whole entry): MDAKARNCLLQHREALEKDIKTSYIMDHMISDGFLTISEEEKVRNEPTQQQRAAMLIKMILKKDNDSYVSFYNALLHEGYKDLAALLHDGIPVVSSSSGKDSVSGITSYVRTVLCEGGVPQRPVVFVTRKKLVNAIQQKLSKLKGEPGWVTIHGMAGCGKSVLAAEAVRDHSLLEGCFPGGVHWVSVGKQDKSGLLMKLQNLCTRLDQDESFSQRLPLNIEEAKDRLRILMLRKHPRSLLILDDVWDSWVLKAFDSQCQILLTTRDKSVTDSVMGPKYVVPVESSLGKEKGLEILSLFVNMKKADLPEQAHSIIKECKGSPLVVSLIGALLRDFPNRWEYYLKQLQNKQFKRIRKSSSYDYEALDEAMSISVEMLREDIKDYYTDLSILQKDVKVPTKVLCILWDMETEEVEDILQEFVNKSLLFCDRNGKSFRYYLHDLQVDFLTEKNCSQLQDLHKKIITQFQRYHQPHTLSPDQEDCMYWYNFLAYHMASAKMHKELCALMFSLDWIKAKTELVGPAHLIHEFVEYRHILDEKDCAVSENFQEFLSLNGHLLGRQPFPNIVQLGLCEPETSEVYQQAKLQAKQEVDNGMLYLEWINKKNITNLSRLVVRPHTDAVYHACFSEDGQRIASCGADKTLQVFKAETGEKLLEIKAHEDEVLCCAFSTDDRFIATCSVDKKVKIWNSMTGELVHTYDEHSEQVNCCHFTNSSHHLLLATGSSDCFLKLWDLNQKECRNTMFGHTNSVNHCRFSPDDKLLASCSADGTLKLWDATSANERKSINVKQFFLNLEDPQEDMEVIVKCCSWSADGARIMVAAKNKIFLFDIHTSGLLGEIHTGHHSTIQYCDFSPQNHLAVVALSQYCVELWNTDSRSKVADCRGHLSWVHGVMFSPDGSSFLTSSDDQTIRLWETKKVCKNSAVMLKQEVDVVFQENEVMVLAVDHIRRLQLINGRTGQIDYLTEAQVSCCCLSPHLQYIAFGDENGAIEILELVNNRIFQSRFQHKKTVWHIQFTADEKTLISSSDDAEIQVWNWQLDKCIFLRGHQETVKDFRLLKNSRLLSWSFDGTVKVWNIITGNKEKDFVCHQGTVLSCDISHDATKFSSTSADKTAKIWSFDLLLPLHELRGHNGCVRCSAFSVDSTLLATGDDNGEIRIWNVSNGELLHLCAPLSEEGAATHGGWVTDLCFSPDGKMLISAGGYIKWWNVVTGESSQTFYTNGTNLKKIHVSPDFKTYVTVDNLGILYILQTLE
# [9] = target: 26S proteasome non-ATPase regulatory subunit 14 (Homo sapiens, UniProt O00487); test: inhibition of proteasome subunit RPN11 – biochemical, fluorescence polarization, uHTS hits, confirmation (AID 602368); assay type: functional
# [10] = target: 72 kDa type IV collagenase (Homo sapiens, UniProt P08253); test: Dose Response validation of uHTS RPN11 inhibitor hits using a MMP-2 Fluorescence assay.; assay type: functional
# Prothrombin = Prothrombin (Bos taurus, UniProt P00735); test: thrombin protease inhibitors – biochemical, fluorescence polarization, uHTS hits, dose response (AID 602369); assay type: functional
# [11] = target: Ras and Rab interactor 1/Tyrosine-protein kinase ABL1 (Homo sapiens, UniProt P00519+Q13671); assay type: functional;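 note: biochemical TR-FRET dose-response test measuring inhibition of binding between Rin1 and Abl proteins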
# [12] = tested on: Streptococcus sp. 'group A'; test: Streptococcus pyogenes SK(-)GAS viability under kanamycin – luminescence, BacTiterGlo, confirmation, counter-screen for streptokinase expression inhibitor project, dose response (AID 1900); assay type: functional, organism-based
# Streptococcus = test: GAS UMAA2166 growth inhibition – luminescence, BacTiterGlo, counter-screen for streptokinase expression inhibitor project, dose response (AID 1915); assay type: functional, organism-based;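 note: potency for reduction of bacterial viability or growth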
# Estrogen receptor beta = Estrogen receptor beta (Homo sapiens, UniProt Q92731);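 note: recombinant ER-beta bound to coactivator SRC1 peptide in presence of estradiol agonist; inhibitors block coactivator peptide binding and lower the FRET signal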
# [13] = target: T3, Peroxisome proliferator-activated receptor gamma/Nuclear receptor coactivator 2; assay type: functional
# [14] = target: T1, Peroxisome proliferator-activated receptor gamma/Nuclear receptor coactivator 1; assay type: functional
# [15] = target: T2, Peroxisome proliferator-activated receptor gamma/Nuclear receptor coactivator 3; assay type: functional
# [16] = target: Heat shock protein HSP 90-alpha (Homo sapiens, UniProt P07900); assay type: functional, organism-based
# H9c2 = test: cells; assay type: functional, cell-based; conditions: Rattus norvegicus, H9c2, Myocardium;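 note: confirmatory concentration-response retest of ultra-high-throughput screening hits for modulation of myocardial damage; cell death induced by hydrogen peroxide oxidative stress; compound pretreatment for 60 min then peroxide exposure for 2 h; potency is for protecting the cells against peroxide damage rather than for killing them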
# [17] = intracellular Trypanosoma cruzi inhibitors in host cells – cell-based, plate reader, cherry-pick samples, set 3, dose response (AID 651818); assay type: functional;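 note: compounds incubated with infected cells for about four days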
# [18] = target: T8, Long-chain-fatty-acid--AMP ligase FadD28 (Mycobacterium tuberculosis, UniProt P9WQ59); test: Fluorescence polarization aasay to screen for inhibitors that compete for the binding of FadD28 to a bisubstrate Measured in Biochemical System Using Plate Reader - 2147-01_Inhibitor_Dose_CherryPick_Activity.; assay type: functional, Mycobacterium tuberculosis H37Rv
# T8 sequence (P9WQ59 whole entry): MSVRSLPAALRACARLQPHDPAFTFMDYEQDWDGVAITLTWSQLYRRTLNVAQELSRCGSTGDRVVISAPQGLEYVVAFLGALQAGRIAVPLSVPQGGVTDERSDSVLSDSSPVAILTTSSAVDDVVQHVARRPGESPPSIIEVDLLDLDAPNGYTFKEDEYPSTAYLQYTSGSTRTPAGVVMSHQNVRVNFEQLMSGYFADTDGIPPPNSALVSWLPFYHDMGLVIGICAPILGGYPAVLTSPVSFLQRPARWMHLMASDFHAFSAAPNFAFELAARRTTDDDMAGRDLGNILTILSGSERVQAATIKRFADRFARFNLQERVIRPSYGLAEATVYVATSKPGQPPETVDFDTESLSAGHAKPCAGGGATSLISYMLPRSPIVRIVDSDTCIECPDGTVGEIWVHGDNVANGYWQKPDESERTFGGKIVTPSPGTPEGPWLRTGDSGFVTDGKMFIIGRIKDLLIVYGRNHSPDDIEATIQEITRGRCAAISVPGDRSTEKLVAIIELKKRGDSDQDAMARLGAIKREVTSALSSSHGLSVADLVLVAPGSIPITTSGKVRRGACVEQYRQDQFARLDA
# T3 sequence (P37231 whole entry): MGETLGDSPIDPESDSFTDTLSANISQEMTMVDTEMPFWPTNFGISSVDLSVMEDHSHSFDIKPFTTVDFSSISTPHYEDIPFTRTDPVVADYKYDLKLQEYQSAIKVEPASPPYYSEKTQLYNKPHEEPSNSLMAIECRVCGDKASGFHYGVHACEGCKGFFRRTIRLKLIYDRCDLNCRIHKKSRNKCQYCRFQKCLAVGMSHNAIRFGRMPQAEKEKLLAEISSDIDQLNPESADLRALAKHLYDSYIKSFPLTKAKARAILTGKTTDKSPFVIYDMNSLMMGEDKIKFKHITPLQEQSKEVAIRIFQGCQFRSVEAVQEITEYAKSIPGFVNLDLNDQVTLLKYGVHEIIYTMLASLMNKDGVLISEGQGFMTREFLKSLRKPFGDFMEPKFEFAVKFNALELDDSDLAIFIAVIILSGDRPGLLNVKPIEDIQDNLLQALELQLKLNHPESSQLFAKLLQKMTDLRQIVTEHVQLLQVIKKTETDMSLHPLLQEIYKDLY
# T3 sequence (Q15596 whole entry, further chain): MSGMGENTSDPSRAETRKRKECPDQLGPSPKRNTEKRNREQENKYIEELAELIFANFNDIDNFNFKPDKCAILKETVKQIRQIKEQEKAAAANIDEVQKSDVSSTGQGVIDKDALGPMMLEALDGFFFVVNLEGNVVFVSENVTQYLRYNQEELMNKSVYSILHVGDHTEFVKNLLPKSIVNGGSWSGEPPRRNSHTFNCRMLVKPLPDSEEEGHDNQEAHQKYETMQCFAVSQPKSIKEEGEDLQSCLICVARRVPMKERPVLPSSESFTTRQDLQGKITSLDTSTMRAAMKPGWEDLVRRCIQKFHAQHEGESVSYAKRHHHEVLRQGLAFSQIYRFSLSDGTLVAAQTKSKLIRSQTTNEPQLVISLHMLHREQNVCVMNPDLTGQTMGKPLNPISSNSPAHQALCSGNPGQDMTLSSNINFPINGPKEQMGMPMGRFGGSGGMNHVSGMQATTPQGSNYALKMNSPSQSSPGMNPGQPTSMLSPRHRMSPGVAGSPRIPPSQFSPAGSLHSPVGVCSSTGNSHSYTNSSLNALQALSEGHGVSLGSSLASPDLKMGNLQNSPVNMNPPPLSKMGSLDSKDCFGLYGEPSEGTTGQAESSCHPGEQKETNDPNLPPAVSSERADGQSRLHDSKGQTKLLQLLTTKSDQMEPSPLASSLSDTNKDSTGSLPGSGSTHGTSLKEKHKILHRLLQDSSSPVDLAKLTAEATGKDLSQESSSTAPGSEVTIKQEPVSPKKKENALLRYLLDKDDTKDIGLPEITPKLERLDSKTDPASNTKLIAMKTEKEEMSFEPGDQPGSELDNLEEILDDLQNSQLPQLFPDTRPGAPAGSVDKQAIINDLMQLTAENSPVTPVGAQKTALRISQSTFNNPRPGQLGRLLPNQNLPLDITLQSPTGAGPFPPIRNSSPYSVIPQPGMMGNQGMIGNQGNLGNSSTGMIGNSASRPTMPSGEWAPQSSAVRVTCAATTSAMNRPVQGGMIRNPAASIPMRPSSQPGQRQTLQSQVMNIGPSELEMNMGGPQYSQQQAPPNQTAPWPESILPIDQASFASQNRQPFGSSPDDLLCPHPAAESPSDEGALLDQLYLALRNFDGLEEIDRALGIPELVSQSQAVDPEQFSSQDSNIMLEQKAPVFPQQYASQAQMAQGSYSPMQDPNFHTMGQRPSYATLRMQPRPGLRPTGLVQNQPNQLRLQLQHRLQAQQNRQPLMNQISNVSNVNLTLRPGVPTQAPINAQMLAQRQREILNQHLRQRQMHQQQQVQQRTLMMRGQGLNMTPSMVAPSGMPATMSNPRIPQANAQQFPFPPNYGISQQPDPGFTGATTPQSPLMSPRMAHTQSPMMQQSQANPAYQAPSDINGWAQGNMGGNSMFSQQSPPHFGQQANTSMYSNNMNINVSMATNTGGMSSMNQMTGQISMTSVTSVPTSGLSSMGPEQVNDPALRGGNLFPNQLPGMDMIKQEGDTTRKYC
# T1 sequence (P37231 whole entry): as the sequence (P37231 whole entry) above
# T1 sequence (Q15788 whole entry, further chain): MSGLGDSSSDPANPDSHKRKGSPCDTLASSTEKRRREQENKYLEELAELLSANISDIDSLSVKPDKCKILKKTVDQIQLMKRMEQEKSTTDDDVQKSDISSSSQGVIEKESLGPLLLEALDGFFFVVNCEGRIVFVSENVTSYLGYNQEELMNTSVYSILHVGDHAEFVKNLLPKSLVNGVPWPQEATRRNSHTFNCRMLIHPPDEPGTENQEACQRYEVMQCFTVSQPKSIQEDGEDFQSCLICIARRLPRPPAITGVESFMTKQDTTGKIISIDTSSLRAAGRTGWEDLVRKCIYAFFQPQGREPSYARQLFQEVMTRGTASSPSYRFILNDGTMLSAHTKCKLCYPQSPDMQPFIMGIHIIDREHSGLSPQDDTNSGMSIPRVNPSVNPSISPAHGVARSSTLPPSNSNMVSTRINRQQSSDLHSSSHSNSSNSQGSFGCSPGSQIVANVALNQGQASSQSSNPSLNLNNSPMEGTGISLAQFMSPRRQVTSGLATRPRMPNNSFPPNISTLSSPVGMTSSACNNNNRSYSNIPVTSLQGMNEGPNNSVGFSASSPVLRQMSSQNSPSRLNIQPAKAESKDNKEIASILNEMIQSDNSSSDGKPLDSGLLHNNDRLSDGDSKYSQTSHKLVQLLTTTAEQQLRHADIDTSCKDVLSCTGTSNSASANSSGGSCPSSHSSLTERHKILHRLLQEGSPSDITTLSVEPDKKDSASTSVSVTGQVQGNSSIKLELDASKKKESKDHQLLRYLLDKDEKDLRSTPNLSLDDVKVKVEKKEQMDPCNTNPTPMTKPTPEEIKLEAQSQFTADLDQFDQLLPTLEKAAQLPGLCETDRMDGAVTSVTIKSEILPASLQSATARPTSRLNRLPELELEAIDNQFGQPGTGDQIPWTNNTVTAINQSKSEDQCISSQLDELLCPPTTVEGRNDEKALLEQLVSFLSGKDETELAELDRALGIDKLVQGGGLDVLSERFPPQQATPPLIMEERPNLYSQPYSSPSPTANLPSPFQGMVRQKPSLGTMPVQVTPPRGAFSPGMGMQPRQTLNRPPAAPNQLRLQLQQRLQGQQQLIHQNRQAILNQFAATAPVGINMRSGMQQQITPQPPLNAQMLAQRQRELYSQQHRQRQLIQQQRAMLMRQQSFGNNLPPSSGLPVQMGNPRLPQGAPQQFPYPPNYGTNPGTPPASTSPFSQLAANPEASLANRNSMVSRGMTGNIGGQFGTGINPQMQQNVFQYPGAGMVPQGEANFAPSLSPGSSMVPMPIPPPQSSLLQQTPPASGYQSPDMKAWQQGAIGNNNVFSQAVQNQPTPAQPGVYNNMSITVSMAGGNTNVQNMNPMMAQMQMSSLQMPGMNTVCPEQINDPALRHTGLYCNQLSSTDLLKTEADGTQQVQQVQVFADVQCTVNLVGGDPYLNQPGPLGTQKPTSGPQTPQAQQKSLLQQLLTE
# Sequence of 26S proteasome non-ATPase regulatory subunit 14 (O00487 whole entry): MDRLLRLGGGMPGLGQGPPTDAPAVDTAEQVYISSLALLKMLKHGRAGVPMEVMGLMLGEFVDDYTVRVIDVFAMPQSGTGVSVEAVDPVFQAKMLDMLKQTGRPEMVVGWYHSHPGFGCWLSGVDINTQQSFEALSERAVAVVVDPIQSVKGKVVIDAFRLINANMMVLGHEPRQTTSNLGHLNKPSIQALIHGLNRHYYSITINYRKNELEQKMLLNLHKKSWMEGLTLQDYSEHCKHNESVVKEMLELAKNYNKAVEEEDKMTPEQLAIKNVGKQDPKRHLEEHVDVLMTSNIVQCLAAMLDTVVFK
# Sequence of 72 kDa type IV collagenase (P08253 whole entry): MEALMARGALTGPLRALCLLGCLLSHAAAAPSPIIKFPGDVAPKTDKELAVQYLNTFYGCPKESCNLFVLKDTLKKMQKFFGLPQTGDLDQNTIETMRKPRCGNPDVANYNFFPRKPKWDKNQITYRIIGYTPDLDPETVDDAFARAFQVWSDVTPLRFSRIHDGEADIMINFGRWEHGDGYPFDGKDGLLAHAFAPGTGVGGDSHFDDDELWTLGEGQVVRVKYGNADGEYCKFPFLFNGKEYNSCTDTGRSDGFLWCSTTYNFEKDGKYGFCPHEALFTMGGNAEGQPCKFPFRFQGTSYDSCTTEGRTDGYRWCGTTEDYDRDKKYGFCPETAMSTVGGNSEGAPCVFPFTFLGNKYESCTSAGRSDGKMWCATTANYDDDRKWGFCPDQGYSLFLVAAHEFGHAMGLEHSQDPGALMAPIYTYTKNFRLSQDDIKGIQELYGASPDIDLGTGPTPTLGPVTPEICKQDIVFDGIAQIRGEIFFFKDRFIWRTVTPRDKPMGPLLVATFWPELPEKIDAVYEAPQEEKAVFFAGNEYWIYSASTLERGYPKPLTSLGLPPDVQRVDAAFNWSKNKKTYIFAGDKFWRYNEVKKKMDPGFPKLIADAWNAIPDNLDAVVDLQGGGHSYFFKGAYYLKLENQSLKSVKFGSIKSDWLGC
smiles,measurement,setting,value
COc1ccc(C(=O)NC2(C(F)(F)F)C(=O)Nc3c2c(=O)[nH]c(=O)n3CCc2ccc(OC)c(OC)c2)cc1 (stereo unspecified),AC50,Escherichia coli,25.4 µM (active)
O=C(O)COc1ccc2c(c1Cl)N=S=N2,EC50,[1],9.32 µM (active)
same,EC50,[2],59 µM (not active)
same,EC50,[3],12.5 µM (not active)
Cc1ccc(C[S+]([O-])Cc2ccc(C(=O)NC3CCCC(C)C3C)o2)cc1 (stereo unspecified),IC50,[4],9.8 µM (active)
same,IC50,[5],7.23 µM (active)
COc1ccc(NS(=O)(=O)c2ccc(C)c(NC(=O)CN3C(=O)NC4(CCCC4)C3=O)c2)cc1,IC50,Bcl-2-related protein A1,> 20 µM (inactive)
same,IC50,[6],16.3 µM (active)
same,IC50,[7],> 20 µM (inactive)
same,IC50,[8],23.2 µM (active)
same,IC50,[9],3.31 µM (active)
same,IC50,[10],> 100 µM (inactive)
same,IC50,Prothrombin,79.2 µM (active)
COc1ccc2oc(C(=O)NCC(c3ccco3)N(C)C)c(C)c2c1 (stereo unspecified),IC50,[11],3.82 µM (active)
CCn1cc(C(=O)O)c(=O)c2cc(F)c(N3CCN(C(S)=Nc4ccc(OC)cc4)CC3)cc21,EC50,[12],2.27 µM (active)
same,EC50,Streptococcus,7.71 µM (active)
same,AC50,Escherichia coli,2.52 µM (active)
CCN(CC)CCCn1c2c(c(SCC(=O)Nc3ccc(OC(F)(F)F)cc3)nc1=O)CCC2,IC50,[4],7.92 µM (active)
same,IC50,[5],6.21 µM (active)
COCC(=O)Nc1nnc(Cc2ccc(OC)cc2)s1,IC50,Estrogen receptor beta,> 50 µM (not active)
same,AC50,Escherichia coli,111 µM (active)
Cn1c(=O)cc(SCC(=O)Nc2ccc3c(c2)OCO3)c2ccccc21,EC50,[1],> 79.4 µM (inactive)
same,EC50,[2],> 79.4 µM (not active)
same,EC50,[3],> 79.4 µM (not active)
NS(=O)(=O)c1ccc(Nc2ccc([N+](=O)[O-])c3nonc23)cc1,IC50,[9],39.7 µM (active)
same,IC50,[10],> 100 µM (inactive)
same,IC50,Prothrombin,36.1 µM (active)
O=C(Cc1ccc(NC(=O)C2CCN(C(=O)C3CCCC3)CC2)cc1)Nc1cccc(C(=O)N2CCCCC2)c1,IC50,[11],29.2 µM (inactive)
Oc1c(Br)cc(Br)cc1/C=N/Cc1ccc(F)cc1,EC50,[13],38.3 µM (not active)
same,EC50,[14],> 79.4 µM (not active)
same,EC50,[15],> 79.4 µM (not active)
same,AC50,[16],6.15 µM (active)
same,IC50,[4],9.21 µM (active)
same,IC50,H9c2,> 79 µM (inactive)
same,IC50,[5],3.64 µM (active)
C[C@@H]1CN([C@@H](C)CO)C(=O)c2cccc(NC(=O)Nc3ccc4c(c3)OCO4)c2O[C@H]1CN(C)Cc1ccc(Oc2ccccc2)cc1,AC50,[17],1.92 µM (active)
C[C@@H]1CN([C@H](C)CO)C(=O)Cc2cc(NS(=O)(=O)c3ccccc3)ccc2O[C@H]1CN(C)Cc1ccc(Cl)c(Cl)c1,AC50,[17],3.13 µM (active)
Cc1nc(N)sc1C(=O)N/N=C/c1c[nH]c2ccccc12,IC50,Bcl-2-related protein A1,> 20 µM (inactive)
same,IC50,[6],1.33 µM (active)
same,IC50,[7],1.25 µM (active)
same,AC50,[18],55.1 µM (active)
